Columns and labels:
Experiment in all cases: HTS ATP-utilizing enzyme assay, off-chip mobility-shift (Caliper HTS 250)
Type in all cases: biochemical
Settings in all cases: kinase named = inhibitory activity/selectivity; test compound 10 μM; active = greater than three-sigma from mean
[1] = target: GSK-3-α (Homo sapiens, UniProt P49840)
Description: (§1) The following procedures describe the reagent and plate preparation for a HTS of an ATP-utilizing enzyme, such as a protein kinase, run in an off-chip mobility-shift assay format. The following provides an HTS protocol for running a protein kinase HTS screen on a Caliper HTS 250 microfluidics system. The following parameters are dependent on the protein kinase used and can be determined by one skilled in the art as part of a typical assay development process. For example, the peptide substrate used can be identified from the current literature, by screening a peptide library of potential protein kinase substrates, or by other applicable means accepted in the field.
(§2) Assays to determine the kinase inhibitory activity of chemical entities of the present disclosure were performed using a Caliper HTS 250 microfluidics device, Greiner U-bottom assay plates, a Multidrop for transfer of reagents, and Biomek FX (AMNCBM03) software. Initially, 2.4 μL of a 1 mM solution of a test compound in 100% DMSO was added to a well of the Greiner U-bottom plate. A single Greiner U-bottom plate having 24×16 wells could include multiple test compounds. Next, 40 μL of 1.06× Assay Buffer was added to each well of the assay plate. Using the Biomek FX, 10 μL of 0.5 M EDTA was added by the span-8 to wells, indicated as 100% Control and 2.4 μL of 100% DMSO was added by the span-8 to wells, indicated as 0% Control. Using the Multidrop, 10 μL of 2.5× Enzyme Buffer, followed by 10 μL of 2.5× Substrate Buffer was added to each well of the assay plate. The total reaction volume in each well was 25 μL, and the concentration of the test compound was 10 μM. The assay plate was incubated for 2.5 hrs at 20° C. to 22° C. After the incubation period, using the Multidrop, 45 μL of 1.55× Termination Buffer was added to each well of the assay plate to stop the reaction. The inhibition of the ATP-utilizing enzyme, such as a particular protein kinase, was determined by measuring the ratio of the peptide substrate to phosphorylated product for each well of the assay plate using the Caliper HTS 250 system.
(§3) The use of three-sigma statistical limits represents a conservative method for declaring potential hits among targets. The three-sigma activity, as well as the mean population activity, can be different for each target enzyme. This method has an expected false positive rate, from an in-control measurement process, of […].
(§4) Each chemical entity listed in Table 2 was tested for protein kinase inhibitory activity according to the biological assays and definitions of protein kinase inhibitory activity as described herein. For each exemplary compound listed in Table 2, the inhibitory activity for at least one protein kinase according to the biological assays and definitions of protein kinase inhibitory activity as described herein is indicated.

[2] = target: T1, ZAP70 (Homo sapiens, UniProt P43403)
T1 sequence (P43403 1-619): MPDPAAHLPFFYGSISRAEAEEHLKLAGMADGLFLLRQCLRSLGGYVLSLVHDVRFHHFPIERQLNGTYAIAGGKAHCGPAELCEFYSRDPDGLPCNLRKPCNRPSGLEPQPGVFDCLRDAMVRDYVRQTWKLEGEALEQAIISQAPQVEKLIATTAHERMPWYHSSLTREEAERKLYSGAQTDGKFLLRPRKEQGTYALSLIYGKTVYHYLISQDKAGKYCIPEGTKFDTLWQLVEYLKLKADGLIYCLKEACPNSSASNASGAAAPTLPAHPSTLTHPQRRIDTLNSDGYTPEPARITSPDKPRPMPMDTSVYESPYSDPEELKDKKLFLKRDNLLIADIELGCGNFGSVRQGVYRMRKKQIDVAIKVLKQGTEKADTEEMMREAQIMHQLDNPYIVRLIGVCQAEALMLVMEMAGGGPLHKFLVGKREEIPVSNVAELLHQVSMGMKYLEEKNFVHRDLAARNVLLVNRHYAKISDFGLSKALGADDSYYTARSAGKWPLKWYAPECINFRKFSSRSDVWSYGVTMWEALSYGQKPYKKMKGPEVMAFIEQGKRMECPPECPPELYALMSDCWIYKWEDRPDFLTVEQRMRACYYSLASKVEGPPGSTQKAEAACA
Description: as §1, §2, §3, §4

[3] = target: KIT (Homo sapiens, UniProt P10721)
Chain of KIT (P10721 26-976): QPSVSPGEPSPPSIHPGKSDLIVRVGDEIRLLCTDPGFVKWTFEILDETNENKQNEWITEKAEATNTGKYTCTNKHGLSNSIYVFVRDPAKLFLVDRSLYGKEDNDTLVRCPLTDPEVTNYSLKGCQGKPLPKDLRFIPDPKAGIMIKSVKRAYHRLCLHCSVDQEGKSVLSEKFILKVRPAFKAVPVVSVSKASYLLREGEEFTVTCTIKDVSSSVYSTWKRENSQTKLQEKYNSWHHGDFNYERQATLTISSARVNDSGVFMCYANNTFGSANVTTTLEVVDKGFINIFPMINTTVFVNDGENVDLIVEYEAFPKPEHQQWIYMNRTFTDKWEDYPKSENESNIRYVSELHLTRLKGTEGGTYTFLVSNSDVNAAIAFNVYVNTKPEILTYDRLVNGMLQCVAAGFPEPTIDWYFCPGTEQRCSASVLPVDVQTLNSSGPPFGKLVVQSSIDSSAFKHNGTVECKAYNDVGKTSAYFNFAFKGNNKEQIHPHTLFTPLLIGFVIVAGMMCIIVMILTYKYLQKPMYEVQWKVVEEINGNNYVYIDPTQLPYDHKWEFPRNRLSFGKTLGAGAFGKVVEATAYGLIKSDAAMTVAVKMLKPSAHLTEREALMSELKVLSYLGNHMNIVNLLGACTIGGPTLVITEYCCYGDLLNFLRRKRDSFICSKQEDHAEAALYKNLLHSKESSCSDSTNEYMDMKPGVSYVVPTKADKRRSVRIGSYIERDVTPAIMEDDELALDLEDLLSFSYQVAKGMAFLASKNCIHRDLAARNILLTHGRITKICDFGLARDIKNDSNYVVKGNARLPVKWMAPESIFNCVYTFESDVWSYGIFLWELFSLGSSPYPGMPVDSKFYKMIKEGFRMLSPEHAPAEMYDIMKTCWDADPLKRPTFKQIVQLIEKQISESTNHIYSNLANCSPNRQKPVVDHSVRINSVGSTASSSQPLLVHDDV
Description: as §1, §2, §3, §4

[4] = target: T2, AKT1 (Homo sapiens, UniProt P31749)
T2 construct: purchased Upstate 14-276
T2 sequence (P31749 whole entry): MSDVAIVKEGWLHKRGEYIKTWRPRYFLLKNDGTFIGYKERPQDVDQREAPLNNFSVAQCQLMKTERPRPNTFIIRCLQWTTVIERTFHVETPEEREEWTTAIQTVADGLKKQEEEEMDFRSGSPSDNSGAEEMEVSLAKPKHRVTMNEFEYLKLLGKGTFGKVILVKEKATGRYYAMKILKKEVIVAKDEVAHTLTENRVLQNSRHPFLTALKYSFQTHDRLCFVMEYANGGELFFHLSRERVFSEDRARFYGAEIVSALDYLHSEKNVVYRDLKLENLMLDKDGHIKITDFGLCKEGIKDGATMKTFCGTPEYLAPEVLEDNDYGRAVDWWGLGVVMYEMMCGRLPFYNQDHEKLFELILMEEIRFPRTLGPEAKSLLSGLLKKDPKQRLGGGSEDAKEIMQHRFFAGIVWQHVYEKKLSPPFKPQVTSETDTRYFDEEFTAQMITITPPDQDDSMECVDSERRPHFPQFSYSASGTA
How it was run: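 AKT1 activity was measured by off-chip mobility shift (Caliper HTS 250) as the ratio of peptide substrate to phosphorylated product. Test compound was at 10 μM, with 2.5 h incubation at 20–22° C. EDTA wells served as 100% control and DMSO wells as 0%. Hits were called at three-sigma limits.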

[5] = target: T3, AURORA-A (Homo sapiens, UniProt O14965)
T3 sequence (O14965 1-403): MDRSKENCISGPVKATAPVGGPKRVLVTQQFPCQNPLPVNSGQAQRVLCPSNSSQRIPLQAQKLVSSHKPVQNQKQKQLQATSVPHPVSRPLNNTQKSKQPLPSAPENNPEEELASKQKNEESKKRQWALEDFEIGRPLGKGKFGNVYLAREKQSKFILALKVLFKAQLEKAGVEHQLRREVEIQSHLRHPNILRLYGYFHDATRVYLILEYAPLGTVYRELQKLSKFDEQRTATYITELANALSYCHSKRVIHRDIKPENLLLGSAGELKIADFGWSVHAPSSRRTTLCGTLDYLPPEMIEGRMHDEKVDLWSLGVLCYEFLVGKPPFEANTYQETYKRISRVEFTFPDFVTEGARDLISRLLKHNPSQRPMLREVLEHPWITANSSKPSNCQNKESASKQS
Description: as §1, §2, §3, §4

[6] = target: T4, DYRK2 (Homo sapiens, UniProt Q92630)
T4 sequence (Q92630 1-601): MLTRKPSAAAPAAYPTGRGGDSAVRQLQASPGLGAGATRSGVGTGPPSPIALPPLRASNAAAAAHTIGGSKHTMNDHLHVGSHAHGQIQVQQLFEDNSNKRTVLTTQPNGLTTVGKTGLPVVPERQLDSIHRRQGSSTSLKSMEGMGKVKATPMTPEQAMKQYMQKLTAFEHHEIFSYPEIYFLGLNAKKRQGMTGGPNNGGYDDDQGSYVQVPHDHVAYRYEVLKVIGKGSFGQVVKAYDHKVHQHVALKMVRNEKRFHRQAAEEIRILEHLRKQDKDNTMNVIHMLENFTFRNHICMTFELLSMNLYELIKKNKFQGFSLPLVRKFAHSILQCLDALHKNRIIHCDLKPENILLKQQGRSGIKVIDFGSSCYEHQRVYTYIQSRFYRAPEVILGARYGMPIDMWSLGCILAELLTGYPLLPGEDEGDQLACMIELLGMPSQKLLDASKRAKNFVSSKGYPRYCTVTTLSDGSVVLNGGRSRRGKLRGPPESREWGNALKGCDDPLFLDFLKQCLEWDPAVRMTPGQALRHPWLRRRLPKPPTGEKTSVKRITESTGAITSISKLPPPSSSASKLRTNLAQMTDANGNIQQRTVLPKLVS
Description: as §1, §2, §3, §4

Chain of GSK-3-α (P49840 whole entry): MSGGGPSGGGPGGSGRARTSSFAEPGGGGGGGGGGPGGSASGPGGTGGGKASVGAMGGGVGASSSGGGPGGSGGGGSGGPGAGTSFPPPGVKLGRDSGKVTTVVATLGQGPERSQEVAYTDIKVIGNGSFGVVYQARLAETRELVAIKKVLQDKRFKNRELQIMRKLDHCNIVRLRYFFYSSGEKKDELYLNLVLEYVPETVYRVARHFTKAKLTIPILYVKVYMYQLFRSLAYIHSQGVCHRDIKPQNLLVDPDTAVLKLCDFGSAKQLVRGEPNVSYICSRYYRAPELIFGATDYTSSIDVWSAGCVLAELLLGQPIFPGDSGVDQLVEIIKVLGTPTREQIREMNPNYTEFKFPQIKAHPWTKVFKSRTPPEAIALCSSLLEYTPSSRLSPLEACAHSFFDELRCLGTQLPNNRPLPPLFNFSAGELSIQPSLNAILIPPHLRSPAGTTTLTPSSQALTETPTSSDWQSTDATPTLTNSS

| Activity [1] | Activity [3] | Activity [4] | Activity [5] | also measured | SMILES |
| --- | --- | --- | --- | --- | --- |
| GSK-3-α | – | – | – | – | CC(=O)N(CCCN1CCOCC1)c1nc(-c2ccccc2)cs1 [N-(3-morpholinopropyl)-N-(4-phenylthiazol-2-yl)acetamide] |
| – | KIT | – | – | Activity [2]: ZAP70 | COc1ccc(-c2csc(N(CCCN3CCOCC3)C(=O)c3ccc(SC)s3)n2)cc1 [N-(4-(4-methoxyphenyl)thiazol-2-yl)-5-(methylthio)-N-(3-morpholinopropyl)thiophene-2-carboxamide] |
| – | – | AKT1 | AURORA-A | – | COc1ccc(-c2csc(N(CCCN3CCOCC3)C(=O)c3ccno3)n2)cc1 [N-(4-(4-methoxyphenyl)thiazol-2-yl)-N-(3-morpholinopropyl)isoxazole-5-carboxamide] |
| – | – | – | AURORA-A | – | COc1ccc(OC)c(-c2csc(N(Cc3ccccc3)C(=O)CCC(=O)O)n2)c1 [4-(benzyl(4-(2,5-dimethoxyphenyl)thiazol-2-yl)amino)-4-oxobutanoic acid] |
| GSK-3-α | – | – | AURORA-A | – | COc1ccc(OC)c(-c2csc(N(Cc3ccco3)C(=O)CCC(=O)O)n2)c1 [4-((4-(2,5-dimethoxyphenyl)thiazol-2-yl)(furan-2-ylmethyl)amino)-4-oxobutanoic acid] |
| – | – | – | AURORA-A | Activity [6]: DYRK2 | COc1ccc(-c2csc(N(CC(C)C)C(=O)CCC(=O)O)n2)cc1 [4-(isobutyl(4-(4-methoxyphenyl)thiazol-2-yl)amino)-4-oxobutanoic acid] |
| – | KIT | AKT1 | – | – | O=C(c1cccs1)N(CCCN1CCOCC1)c1nc(-c2ccc3c(c2)OCCCO3)cs1 [N-(4-(3,4-dihydro-2H-benzo[b][1,4]dioxepin-7-yl)thiazol-2-yl)-N-(3-morpholinopropyl)thiophene-2-carboxamide] |
| GSK-3-α | – | – | – | Activity [6]: DYRK2 | COc1ccc(-c2csc(N(CCCN3CCOCC3)C(=O)COc3ccccc3)n2)cc1 [N-(4-(4-methoxyphenyl)thiazol-2-yl)-N-(3-morpholinopropyl)-2-phenoxyacetamide] |
| – | KIT | AKT1 | – | – | COc1ccc(-c2csc(N(CCCN3CCOCC3)C(=O)c3ccc(C)o3)n2)cc1 [N-(4-(4-methoxyphenyl)thiazol-2-yl)-5-methyl-N-(3-morpholinopropyl)furan-2-carboxamide] |
| GSK-3-α | – | – | – | – | COc1ccc(OC)c(-c2csc(N(CCCN(C)C)C(C)=O)n2)c1 [N-(4-(2,5-dimethoxyphenyl)thiazol-2-yl)-N-(3-(dimethylamino)propyl)acetamide] |
| – | KIT | AKT1 | – | – | O=C(c1cccs1)N(CCCN1CCOCC1)c1nc(-c2ccncc2)cs1 [N-(3-morpholinopropyl)-N-(4-(pyridin-4-yl)thiazol-2-yl)thiophene-2-carboxamide] |
| – | KIT | – | – | Activity [2]: ZAP70 | COc1ccc(-c2csc(N(CCCN3CCOCC3)C(=O)c3c(C)noc3C)n2)cc1 [N-(4-(4-methoxyphenyl)thiazol-2-yl)-3,5-dimethyl-N-(3-morpholinopropyl)isoxazole-4-carboxamide] |
| GSK-3-α | – | – | AURORA-A | – | CCCCN(C(=O)CCC(=O)O)c1nc(-c2cc(OC)ccc2OC)cs1 [4-(butyl(4-(2,5-dimethoxyphenyl)thiazol-2-yl)amino)-4-oxobutanoic acid] |
| GSK-3-α | – | – | – | – | COc1ccc(OC)c(-c2csc(N(CCc3ccc(OC)c(OC)c3)C(=O)CCC(=O)O)n2)c1 [4-((3,4-dimethoxyphenethyl)(4-(2,5-dimethoxyphenyl)thiazol-2-yl)amino)-4-oxobutanoic acid] |
| GSK-3-α | KIT | AKT1 | – | – | N#Cc1cccc(-c2csc(N(CCCN3CCOCC3)C(=O)c3cccs3)n2)c1 [N-(4-(3-cyanophenyl)thiazol-2-yl)-N-(3-morpholinopropyl)thiophene-2-carboxamide] |
